According to patent US20080200536A1, “Pharmaceutical Formulation with High Stability and Dissolution and Manufacturing Process” (BORAM PHARM.CO., LTD, priority 2005, published 2008):

Test: Dissolution rate of orlistat powder raw material
Assay type: physicochemical
Protocol: Orlistat is a drug having a melting point as low as 43° C., and is commercially available in a powder form. The dissolution rate of orlistat undergoing no denaturation under good storage conditions is about 60%. […] In addition, when raw materials of orlistat are exposed to high temperature during transport, the powder particles of orlistat rapidly aggregate. Thereafter, the aggregates remain even when being cooled, causing damage to the dissolution of orlistat.

- dissolution rate (orlistat raw material exposed to high temperature during transport, particles aggregated): ≤ 40%
- dissolution rate (orlistat undergoing no denaturation under good storage conditions): about 60%
SMILES: CCCCCCCCCCC[C@@H](C[C@@H]1OC(=O)[C@H]1CCCCCC)OC(=O)[C@H](CC(C)C)NC=O [orlistat]
